The source of these data is patent US20250195521A1 (Revolution Medicines, Inc., priority 2020, published 2025).

SMILES strings stand for the structures.

The test system of the first assay is K-Ras G12C (NCI-H358 cells). Description: Potency assay: pERK in NCI-H358 cells. Format: cell-based, human. Particulars: Homo sapiens, NCI-H358, 4 h, read-out: pERK EC50 (H358 KRAS G12C). The procedure: The purpose of this assay is to measure the ability of test compounds to inhibit K-Ras in cells. […] This procedure measures a decrease in cellular pERK in response to test compounds. The procedure described below in NCI-H358 cells is applicable to K-Ras G12C.
Note: This protocol may be executed substituting other cell lines to characterize inhibitors of other RAS variants, including, for example, AsPC-1 (K-Ras G12D), Capan-1 (K-Ras G12V), or NCI-H1355 (K-Ras G13C).
NCI-H358 cells were grown and maintained using media and procedures recommended by the ATCC. On the day prior to compound addition, cells were plated in 384-well cell culture plates (40 μl/well) and grown overnight in a 37° C., 5% CO2 incubator. Test compounds were prepared in 10, 3-fold dilutions in DMSO, with a high concentration of 10 mM. On the day of assay, 40 nL of test compound was added to each well of cell culture plate using an Echo550 liquid handler (LabCyte®). Concentrations of test compound were tested in duplicate. After compound addition, cells were incubated 4 hours at 37° C., 5% CO2. Following incubation, culture medium was removed and cells were washed once with phosphate buffered saline.
In some experiments, cellular pERK level was determined using the AlphaLISA SureFire Ultra p-ERK1/2 Assay Kit (PerkinElmer). Cells were lysed in 25 μL lysis buffer, with shaking at 600 RPM at room temperature. […] After a 2-hour incubation in the dark, 5 μL donor mix was added, plate was sealed, and incubated 2 hours at room temperature. Signal was read on an Envision plate reader (PerkinElmer) using standard AlphaLISA settings. Analysis of raw data was carried out in Excel (Microsoft) and Prism (GraphPad). Signal was plotted vs. the decadal logarithm of compound concentration, and IC50 was determined by fitting a 4-parameter sigmoidal concentration response model.
In other experiments, cellular pERK was determined by In-Cell Western. […] Fixed cells were washed 4 times for 5 minutes with TBS containing 0.1% Triton X-100 (TBST) and then blocked with 100 μL Odyssey blocking buffer (LI-COR) for 60 minutes at room temperature. Primary antibody (PERK, CST-4370, Cell Signaling Technology) was diluted 1:200 in blocking buffer, and 50 μL was added to each well and incubated overnight at 4° C. Cells were washed 4 times for 5 minutes with TBST. Secondary antibody (IR-800CW rabbit, LI-COR, diluted 1:800) and DNA stain DRAQ5 (LI-COR, diluted 1:2000) were added and incubated 1-2 hours at room temperature. Cells were washed 4 times for 5 minutes with TBST. Plates were scanned on a Li—COR Odyssey CLx Imager. Analysis of raw data was carried out in Excel (Microsoft) and Prism (GraphPad). Signal was plotted vs. the decadal logarithm of compound concentration, and IC50 was determined by fitting a 4-parameter sigmoidal concentration response model.
Regarding `CCn1c(-c2cccnc2[C@H](C)OC)c2c3cc(ccc31)-c1cc(O)cc(c1)C[C@H](NC(=O)[C@H](C(C)C)N(C)C(=O)[C@@H]1CC1(F)F)C(=O)N1CCC[C@H](N1)C(=O)OCC(C)(C)C2` [Compound A167], the EC50 was below 5 µM.

Staying with this assay, now noted: Homo sapiens; NCI-H358 cells, 4 hours; read-out: pERK EC50 (H358 KRAS G12C).
As for `CCn1c(-c2cccnc2[C@H](C)OC)c2c3cc(ccc31)-c1cc(O)cc(c1)C[C@H](NC(=O)[C@H](C(C)C)N(C)C(=O)[C@H]1CCN(CCO)C1)C(=O)N1CCC[C@H](N1)C(=O)OCC(C)(C)C2` [Compound A111], the EC50 was below 5 µM. For the molecule `CCn1c(-c2cccnc2[C@H](C)OC)c2c3cc(ccc31)-c1cc(O)cc(c1)C[C@H](NC(=O)[C@H](C(C)C)N(C)C(=O)[C@@H]1CCNC1)C(=O)N1CCC[C@H](N1)C(=O)OCC(C)(C)C2` [Compound A129], the EC50 is below 5 µM. Turning to `CCn1c(-c2cccnc2[C@H](C)OC)c2c3cc(ccc31)-c1cc(O)cc(c1)C[C@H](NC(=O)[C@H](C(C)C)N(C)C(=O)C1CC3CC1CN3)C(=O)N1CCC[C@H](N1)C(=O)OCC(C)(C)C2` (stereo partly shown) [Compound A133], the half-maximal effective concentration (EC50) is below 5 µM. Still for that read-out and setting: as for `CCn1c(-c2cccnc2[C@H](C)OC)c2c3cc(ccc31)-c1csc(n1)C[C@H](NC(=O)[C@H](C1CCCC1)N(C)C(C)=O)C(=O)N1CCC[C@H](N1)C(=O)OCC(C)(C)C2` [Compound A141], the figure is below 5 µM; as for `CCn1c(-c2cccnc2[C@H](C)OC)c2c3cc(ccc31)-c1cc(O)cc(c1)C[C@H](NC(=O)[C@H](C(C)C)N(C)C(=O)C1CC13CCNC3)C(=O)N1CCC[C@H](N1)C(=O)OCC(C)(C)C2` (stereo partly shown) [Compound A148], below 5 µM; as for `C=C[C@@H]1C[C@]1(N)C(=O)N(C)[C@H](C(=O)N[C@H]1Cc2cc(O)cc(c2)-c2ccc3c(c2)c(c(-c2cccnc2[C@H](C)OC)n3CC)CC(C)(C)COC(=O)[C@@H]2CCCN(N2)C1=O)C(C)C` [Compound A149], below 5 µM. The same measure, in the same setting: as for `CCn1c(-c2cccnc2[C@H](C)OC)c2c3cc(ccc31)-c1cc(O)cc(c1)C[C@H](NC(=O)[C@H](C(C)C)N(C)C(=O)C1(C#N)CC1)C(=O)N1CCC[C@H](N1)C(=O)OCC(C)(C)C2` [Compound A159], the figure is below 5 µM. Still for that read-out and setting: then `CCn1c(-c2cccnc2[C@H](C)OC)c2c3cc(ccc31)-c1cc(O)cc(c1)C[C@H](NC(=O)[C@H](C(C)C)N(C)C(=O)[C@H]1CC1(F)F)C(=O)N1CCC[C@H](N1)C(=O)OCC(C)(C)C2` [Compound A166], with below 5 µM; and `CCn1c(-c2cccnc2[C@H](C)OC)c2c3cc(ccc31)-c1cc(O)cc(c1)C[C@H](NC(=O)[C@H](C(C)C)N(C)C(=O)C1Cc3cccnc3C1)C(=O)N1CCC[C@H](N1)C(=O)OCC(C)(C)C2` (stereo partly shown) [Compound A250], with below 5 µM; and `CCn1c(-c2cnccc2COC)c2c3cc(ccc31)-c1cc(O)cc(c1)C[C@H](NC(=O)C1CCCC1C(F)F)C(=O)N1CCC[C@H](N1)C(=O)OCC(C)(C)C2` (stereo partly shown) [Compound A261], with below 5 µM. For `CCN1C[C@@H](C(=O)N(C)[C@H](C(=O)N[C@H]2Cc3cc(O)cc(c3)-c3ccc4c(c3)c(c(-c3cnccc3COC)n4CC)CC(C)(C)COC(=O)[C@@H]3CCCN(N3)C2=O)C(C)C)CC1=O` [Compound A262], the EC50 was below 5 µM. As to `CCn1c(-c2cccnc2[C@H](C)OC)c2c3cc(ccc31)-c1csc(n1)C[C@H](NC(=O)N1CCCC1)C(=O)N1CCC[C@H](N1)C(=O)OCC(C)(C)C2` [Compound A267], the EC50 is below 5 µM. For `CCn1c(-c2cccnc2[C@H](C)OC)c2c3cc(ccc31)-c1csc(n1)C[C@H](NC(=O)[C@H](C(C)C)N(C)C(=O)N1CC[C@@H]1C(=O)NC)C(=O)N1CCC[C@H](N1)C(=O)OCC(C)(C)C2` [Compound A281], the EC50 was below 5 µM. Same read-out and setting: as for `CCn1c(-c2cccnc2[C@H](C)OC)c2c3cc(ccc31)-c1csc(n1)C[C@H](NC(=O)[C@H](C(C)C)N(C)C(=O)N1CCOC3(CN(C)C3)C1)C(=O)N1CCC[C@H](N1)C(=O)OCC(C)(C)C2` [Compound A294], the figure is below 5 µM; as for `CCn1c(-c2cccnc2[C@H](C)OC)c2c3cc(ccc31)-c1csc(n1)C[C@H](NC(=O)[C@H](C(C)C)N(C)C(=O)N1CC(n3nc(C)cc3C)C1)C(=O)N1CCC[C@H](N1)C(=O)OCC(C)(C)C2` [Compound A297], below 5 µM. Turning to `CCn1c(-c2cccnc2[C@H](C)OC)c2c3cc(ccc31)-c1csc(n1)C[C@H](NC(=O)[C@H](C(C)C)N(C)C(=O)N1CC(OC(F)F)C1)C(=O)N1CCC[C@H](N1)C(=O)OCC(C)(C)C2` [Compound A302], the EC50 is below 5 µM. As for `CCn1c(-c2cccnc2[C@H](C)OC)c2c3cc(ccc31)-c1csc(n1)C[C@H](NC(=O)[C@H](C(C)C)N(C)C(=O)N1CCN(C(=O)CO)CC1)C(=O)N1CCC[C@H](N1)C(=O)OCC(C)(C)C2` [Compound A306], the EC50 was below 5 µM.

As for `CCn1c(-c2cccnc2[C@H](C)OC)c2c3cc(ccc31)-c1csc(n1)C[C@H](NC(=O)[C@H](C(C)C)N(C)C(=O)N1CCO[C@@H](C)C1)C(=O)N1CCC[C@H](N1)C(=O)OCC(C)(C)C2` [Compound A309], the half-maximal effective concentration (EC50) is below 5 µM. Turning to `CCN(CC)C1CN(C(=O)N(C)[C@H](C(=O)N[C@H]2Cc3nc(cs3)-c3ccc4c(c3)c(c(-c3cccnc3[C@H](C)OC)n4CC)CC(C)(C)COC(=O)[C@@H]3CCCN(N3)C2=O)C(C)C)C1` [Compound A319], the EC50 was below 5 µM. With `CCn1c(-c2cccnc2[C@H](C)OC)c2c3cc(ccc31)-c1csc(n1)C[C@H](NC(=O)[C@H](C(C)C)N(C)C(=O)N(C)CC(C)C)C(=O)N1CCC[C@H](N1)C(=O)OCC(C)(C)C2` [Compound A332], the EC50 is below 5 µM. On the same count and under the same terms, as for `CCn1c(-c2cccnc2[C@H](C)OC)c2c3cc(ccc31)-c1csc(n1)C[C@H](NC(=O)[C@H](C(C)C)N(C)C(=O)N1CC(NC)C1)C(=O)N1CCC[C@H](N1)C(=O)OCC(C)(C)C2` [Compound A337], the figure is below 5 µM; as for `CCN(C(=O)N(C)[C@H](C(=O)N[C@H]1Cc2nc(cs2)-c2ccc3c(c2)c(c(-c2cccnc2[C@H](C)OC)n3CC)CC(C)(C)COC(=O)[C@@H]2CCCN(N2)C1=O)C(C)C)C1CC1` [Compound A352], below 5 µM; as for `CCn1c(-c2cccnc2[C@H](C)OC)c2c3cc(ccc31)-c1csc(n1)C[C@H](NC(=O)[C@H](C(C)C)N(C)C(=O)N(C)C1CC1)C(=O)N1CCC[C@H](N1)C(=O)OCC(C)(C)C2` [Compound A353], below 5 µM. Same read-out and setting: then `CCn1c(-c2cccnc2[C@H](C)OC)c2c3cc(ccc31)-c1csc(n1)C[C@H](NC(=O)[C@H](C(C)C)N(C)C(=O)N1CC(CO)C1)C(=O)N1CCC[C@H](N1)C(=O)OCC(C)(C)C2` [Compound A356], with below 5 µM; and `CCn1c(-c2cccnc2[C@H](C)OC)c2c3cc(ccc31)-c1csc(n1)C[C@H](NC(=O)[C@H]1CCO1)C(=O)N1CCC[C@H](N1)C(=O)OCC(C)(C)C2` [Compound A360], with below 5 µM; and `CCn1c(-c2cccnc2[C@H](C)OC)c2c3cc(ccc31)-c1cc(O)cc(c1)C[C@H](NC(=O)[C@H](C(C)C)N(C)C(=O)[C@H]1CC[C@@H](CN(C)C)O1)C(=O)N1CCC[C@H](N1)C(=O)OCC(C)(C)C2` [Compound A397], with below 5 µM. On the same count and under the same terms, as for `CCn1c(-c2cccnc2[C@H](C)OC)c2c3cc(ccc31)-c1cc(O)cc(c1)C[C@H](NC(=O)[C@H](C(C)C)N(C)C(=O)[C@@H]1OC[C@@H]3CCC[C@@H]31)C(=O)N1CCC[C@H](N1)C(=O)OCC(C)(C)C2` [Compound A407], the figure is below 5 µM.

What is called EC50 is the concentration that produces a half-maximal response.
